Assays:
4T1 breast tumor cells [1] = experiment: Chamber cell migration assay (Boyden chambers); type: cell-based; details: Mus musculus, 10% FBS in lower chamber, 4 h
Experimental: Chamber Cell Migration Assay: Cell migration was assayed in Boyden chambers [8.0 μm pore size polyethylene terephthalate membrane, FALCON cell culture insert (Becton-Dickinson)]. Cells were trypsinized and counted. 5-10×10^4 cells in serum free medium (300 μl) were added to the upper chamber and 500 μl of appropriate medium with 10% FBS were added to the lower chamber. Transwells were incubated for 4 h at 37° C. Cells on the inside of the transwell inserts were removed with a cotton swab, and cells on the underside of the insert were fixed and stained. Photographs of three random fields were taken and the number of cells counted to calculate the average number of cells that had transmigrated. Results in the form of IC50 values obtained from the chamber migration assay using 4T1 breast tumor cells for compounds 1-6 are presented in Table 1.

[2] = tested on: Bacillus subtilis (ATCC 49343); experiment: Modified disc diffusion antimicrobial assay; type: cell-based; details: ATCC49343, B. subtilis, 50 μg/disk, 6 mm disks, 37° C., 18 hours
Experimental: Antimicrobial Assays Compounds were tested for antimicrobial activity against Escherichia coli (ATCC 8739) and Bacillus subtilis (ATCC 49343) and for antifungal activity against Candida albicans (ATCC 90027) using a modified disc diffusion assay. Briefly, agar plates seeded with suspensions of bacteria or fungi were prepared by adding 500 μL of a 24 h culture of bacteria to 100 mL of autoclaved Antibiotic Medium 2 (AB2) containing 1% agar and cooled to 55° C., or of fungi to Sabouraud Dextrose Agar (SDA) at 55° C. Seeded liquid agar (10 mL) was transferred immediately to square Petri dishes and allowed to cool for 1 h. Controls used for C. albicans, E. coli and B. subtilis included amphotericin B (25 μg), ampicillin (50 μg) and choloramphenicol (12.5 μg), respectively. Sterile disks (6 mm) containing control antibiotics or one of the macrocycles ([…]) were placed onto the agar and plates were incubated at 37° C. for 18 hours Inhibitory activity was measured by the zones of inhibition.

4T1 breast tumor cells [3] = experiment: Cell proliferation assay; type: cell-based, mouse; details: DMEM with 10% FBS, cells counted daily (FIG. 1)
Experimental: Cell Proliferation Assay: 4T1 breast tumor cells were trypsinized, resuspended in Dulbecco's Modified Eagle Medium (DMEM) with 10% FBS and counted. 5×10^4 cells were plated per well in a 6-well dish and grown in DMEM with 10% FBS. Each day of the assay, one well of each type of cell was trypsinized and the cells were counted.

4T1 breast tumor cells [4] = experiment: In vitro wound-healing assay; type: cell-based, mouse; details: 4T1 cells, medium with 10% FBS, overnight incubation at 37° C.
Experimental: In vitro Wound-Healing Assay: 4T1 breast tumor cells in medium containing 10% fetal bovine serum (FBS) were seeded into wells of 24-multiwell plates (Becton-Dickinson). After they grew to confluence, wounds were made with sterile pipette tips. Cells were washed with Phosphate Buffered Saline (PBS) and refreshed with medium with or without 10% FBS. After overnight incubation at 37° C., cells were fixed and photographed according to protocols described by Yang, S, and Huang, X.-Y. J. Biol. Chem. 2005, 280, 27130-27137; and Shan, D.; Chen, L.; Njardarson, J. T.; Gaul, C.; Ma, X.; Danishefsky, S. J.; and Huang, X.-Y. Proc. Natl. Acad. Sci. U.S.A. 2005, 102, 3772-3776, both the Yang and Shan references are incorporated herein by reference.

Row | SMILES | IC50 (4T1 breast tumor cells [1]; unit given in μM) | zone of inhibition at 50 µg/disc [2] | further results
1 | O=C1CC/C=C/CNC(=O)[C@]2(O)C[C@@H](O)[C@@H](O)[C@@H](C2)O1 [Compound 2] | > 250 µM | – | –
2 | CC(C)=CC(=O)O[C@@H]1C[C@]2(O)C[C@@H](OC(=O)CCCC/C=C\CNC2=O)[C@@H]1O [Compound 6] | – | – | IC50 (4T1 breast tumor cells [1]; unit column prints nM): 0.55 ± 0.189 µM
3 | O=C1CCCC/C=C\CNC(=O)[C@]2(O)C[C@@H](O)[C@@H](O)[C@@H](C2)O1 [Compound 3] | 525 ± 163 µM | 8.5 mm | –
4 | O=C1CCCC/C=C/CNC(=O)[C@]2(O)C[C@@H](O)[C@@H](O)[C@@H](C2)O1 [Compound 4] | 12 ± 2.9 µM | 7.5 mm | –
5 | O=C1CC/C=C\CNC(=O)[C@]2(O)C[C@@H](O)[C@@H](O)[C@@H](C2)O1 [Compound 1] | – | 9 mm | 4T1 cell proliferation (4T1 breast tumor cells [3]): does not affect 4T1 cell proliferation; IC50 (4T1 breast tumor cells [1]; unit column prints nM): 0.077 ± 0.017 µM; closure of the wound (cell migration) (4T1 breast tumor cells [4]): prevented closure of the wound
6 | CC1(C)S[C@@H]2[C@H](NC(=O)[C@H](N)c3ccccc3)C(=O)N2[C@H]1C(=O)O [ampicillin, reference compound] | – | 15 mm | –
7 | CC(C)(C)OC(=O)NC(Cc1ccccc1)C(=O)O[C@@H]1C[C@]2(O)C[C@@H](OC(=O)CCCC/C=C\CNC2=O)[C@@H]1O (stereo partly drawn) [Compound 5] | > 500 µM | – | –

— patent US20120128657A1, “SYNTHETIC MACROCYCLIC COMPOUNDS AND METHODS FOR TREATING CANCER” (priority 2007, published 2012)
